Experimental data taken from patent US20250326753A1, “DUAL CXCR4-BTK INHIBITORS” (X4 Pharmaceuticals, Inc., priority 2022, published 2025).
pIC50: −log10 of the molar value.

Experiments:
TEC = target: T1, TEC (Homo sapiens, UniProt P42680); assay: PanQinase kinase panel: TEC; format: biochemical; settings: for inhibition at 1 µM: read-out: INHIBITORY EFFECT @ 1 uM: TEC
T1 construct: purchased Reaction Biology Europe GmbH
T1 sequence (P42680 1-631): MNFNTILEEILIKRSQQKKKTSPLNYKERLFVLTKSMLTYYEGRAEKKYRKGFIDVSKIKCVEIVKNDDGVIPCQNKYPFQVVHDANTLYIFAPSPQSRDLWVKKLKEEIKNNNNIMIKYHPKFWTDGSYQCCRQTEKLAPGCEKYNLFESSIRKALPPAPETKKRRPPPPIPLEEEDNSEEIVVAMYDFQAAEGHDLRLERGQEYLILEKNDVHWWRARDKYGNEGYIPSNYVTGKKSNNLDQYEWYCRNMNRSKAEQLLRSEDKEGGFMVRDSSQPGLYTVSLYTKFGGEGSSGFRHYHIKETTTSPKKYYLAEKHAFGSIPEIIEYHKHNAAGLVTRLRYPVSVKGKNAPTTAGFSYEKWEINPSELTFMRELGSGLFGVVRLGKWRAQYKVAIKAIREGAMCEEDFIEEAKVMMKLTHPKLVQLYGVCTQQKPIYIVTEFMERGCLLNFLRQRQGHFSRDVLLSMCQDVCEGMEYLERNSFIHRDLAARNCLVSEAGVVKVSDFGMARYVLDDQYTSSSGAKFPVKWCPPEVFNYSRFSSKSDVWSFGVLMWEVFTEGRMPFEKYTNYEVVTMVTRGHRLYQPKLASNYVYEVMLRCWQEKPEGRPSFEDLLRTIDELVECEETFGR
Protocol: (§1) Screening procedures were performed in accordance with the company's on-line protocol [accessed on-line Mar.
(§2) For each kinase, the median value of the cpm of three wells was defined as “low control” (n=3). This value reflects unspecific binding of radioactivity to the plate in the absence of a protein kinase but in the presence of the substrate. Additionally, for each kinase the median value of the cpm of three other wells was taken as the “high control,” i.e. full activity in the absence of any inhibitor (n=3). The difference between high and low control of each enzyme was taken as 100% activity.
(§3) As part of the data evaluation the low control of each kinase was subtracted from the high control value as well as from their corresponding “compound values”.

YES = target: T2, YES (Homo sapiens, UniProt P07947); assay: PanQinase kinase panel: YES; format: biochemical; settings: read-out: INHIBITORY EFFECT @ 1 uM: YES
T2 construct: purchased Reaction Biology Europe GmbH
T2 sequence (P07947 whole entry): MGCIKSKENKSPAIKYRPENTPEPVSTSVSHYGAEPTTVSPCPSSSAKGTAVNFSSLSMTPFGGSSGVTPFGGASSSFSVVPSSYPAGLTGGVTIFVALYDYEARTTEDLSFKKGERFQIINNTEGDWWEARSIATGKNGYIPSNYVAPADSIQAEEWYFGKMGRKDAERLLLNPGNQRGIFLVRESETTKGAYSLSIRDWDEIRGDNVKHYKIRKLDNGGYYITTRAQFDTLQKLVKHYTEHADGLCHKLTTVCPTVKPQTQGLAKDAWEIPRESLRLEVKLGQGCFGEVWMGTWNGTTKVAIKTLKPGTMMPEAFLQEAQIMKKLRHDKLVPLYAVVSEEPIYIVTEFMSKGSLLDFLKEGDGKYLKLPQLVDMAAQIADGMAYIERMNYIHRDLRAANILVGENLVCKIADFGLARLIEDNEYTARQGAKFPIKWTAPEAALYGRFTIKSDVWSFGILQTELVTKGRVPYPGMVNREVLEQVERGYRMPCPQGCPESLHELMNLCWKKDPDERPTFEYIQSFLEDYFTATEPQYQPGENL
Protocol: as §1, §2, §3

ITK = target: T3, ITK (Homo sapiens, UniProt Q08881); assay: PanQinase kinase panel: ITK; format: biochemical; settings: read-out: INHIBITORY EFFECT @ 1 uM: ITK
T3 construct: purchased Reaction Biology Europe GmbH
T3 sequence (Q08881 1-620): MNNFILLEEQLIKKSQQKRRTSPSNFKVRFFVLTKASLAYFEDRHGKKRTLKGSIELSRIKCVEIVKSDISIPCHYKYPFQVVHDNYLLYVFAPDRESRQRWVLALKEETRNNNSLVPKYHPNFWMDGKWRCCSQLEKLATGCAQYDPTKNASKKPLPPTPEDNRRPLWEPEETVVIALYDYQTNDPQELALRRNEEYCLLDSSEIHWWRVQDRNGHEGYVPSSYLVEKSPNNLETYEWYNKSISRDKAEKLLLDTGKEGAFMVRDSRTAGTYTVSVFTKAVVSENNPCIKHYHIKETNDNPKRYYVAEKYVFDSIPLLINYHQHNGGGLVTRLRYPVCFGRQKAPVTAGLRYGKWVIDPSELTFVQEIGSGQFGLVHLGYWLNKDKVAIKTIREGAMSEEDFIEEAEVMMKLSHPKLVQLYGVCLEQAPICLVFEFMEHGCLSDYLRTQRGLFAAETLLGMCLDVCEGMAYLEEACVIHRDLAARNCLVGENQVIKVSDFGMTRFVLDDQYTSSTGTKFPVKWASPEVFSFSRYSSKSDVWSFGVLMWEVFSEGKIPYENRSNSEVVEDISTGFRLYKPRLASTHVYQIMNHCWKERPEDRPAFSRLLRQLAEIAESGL
Protocol: as §1, §2
(§4) As part of the data evaluation the low control of each kinase was subtracted from the high control value as well as from their corresponding “compound values”. The residual activity (in %) for each compound well was calculated by using the following formula: Res. Activity (%)=100×[(signal of compound−low control)/(high control−low control)].

FYN = target: T4, FYN (Homo sapiens, UniProt P06241); assay: PanQinase kinase panel: FYN; format: biochemical; settings: read-out: INHIBITORY EFFECT @ 1 uM: FYN
T4 construct: purchased Reaction Biology Europe GmbH
T4 sequence (P06241 whole entry): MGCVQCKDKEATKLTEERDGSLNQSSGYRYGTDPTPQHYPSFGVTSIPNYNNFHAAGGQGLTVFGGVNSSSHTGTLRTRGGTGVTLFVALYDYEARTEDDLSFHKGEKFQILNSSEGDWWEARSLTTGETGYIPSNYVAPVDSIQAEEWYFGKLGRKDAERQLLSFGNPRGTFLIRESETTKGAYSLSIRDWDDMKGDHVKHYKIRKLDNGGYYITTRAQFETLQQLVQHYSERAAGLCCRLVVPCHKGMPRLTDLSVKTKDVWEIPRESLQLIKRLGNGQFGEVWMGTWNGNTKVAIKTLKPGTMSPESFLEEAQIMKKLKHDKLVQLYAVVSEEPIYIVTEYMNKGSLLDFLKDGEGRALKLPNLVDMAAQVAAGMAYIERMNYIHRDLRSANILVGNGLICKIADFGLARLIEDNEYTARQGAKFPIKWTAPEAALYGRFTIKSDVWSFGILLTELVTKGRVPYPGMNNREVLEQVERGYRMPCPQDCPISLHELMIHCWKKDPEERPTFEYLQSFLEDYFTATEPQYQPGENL
Protocol: as §1, §2, §4

FER = target: T5, FER (Homo sapiens, UniProt P16591); assay: PanQinase kinase panel: FER; format: biochemical; settings: read-out: INHIBITORY EFFECT @ 1 uM: FER
T5 construct: purchased Reaction Biology Europe GmbH
T5 sequence (P16591 whole entry): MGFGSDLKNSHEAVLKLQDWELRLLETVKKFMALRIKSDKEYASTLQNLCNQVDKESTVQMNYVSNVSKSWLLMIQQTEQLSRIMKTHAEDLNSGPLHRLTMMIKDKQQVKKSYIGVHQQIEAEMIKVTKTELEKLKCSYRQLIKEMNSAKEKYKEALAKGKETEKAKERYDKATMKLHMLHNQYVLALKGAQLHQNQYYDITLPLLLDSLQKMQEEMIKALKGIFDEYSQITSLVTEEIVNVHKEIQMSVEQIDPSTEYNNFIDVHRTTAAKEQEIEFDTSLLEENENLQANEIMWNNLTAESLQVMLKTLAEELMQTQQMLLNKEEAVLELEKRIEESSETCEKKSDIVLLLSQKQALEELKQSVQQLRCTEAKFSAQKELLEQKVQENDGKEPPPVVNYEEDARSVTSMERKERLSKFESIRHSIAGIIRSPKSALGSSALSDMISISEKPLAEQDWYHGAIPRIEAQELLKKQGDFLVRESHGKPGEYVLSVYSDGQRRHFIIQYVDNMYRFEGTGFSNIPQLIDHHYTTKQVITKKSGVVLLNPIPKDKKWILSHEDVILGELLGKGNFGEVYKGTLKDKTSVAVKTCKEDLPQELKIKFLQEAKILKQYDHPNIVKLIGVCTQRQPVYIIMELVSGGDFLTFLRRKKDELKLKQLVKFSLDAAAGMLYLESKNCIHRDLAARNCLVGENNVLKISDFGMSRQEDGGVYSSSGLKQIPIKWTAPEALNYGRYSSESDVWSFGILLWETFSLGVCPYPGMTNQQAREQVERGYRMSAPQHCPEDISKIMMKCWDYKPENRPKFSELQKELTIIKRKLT
Protocol: as §1, §2, §4

SRC = target: T6, SRC (Homo sapiens, UniProt P12931); assay: PanQinase kinase panel: SRC; format: biochemical; settings: read-out: INHIBITORY EFFECT @ 1 uM: SRC
T6 construct: purchased Reaction Biology Europe GmbH
T6 sequence (P12931 whole entry): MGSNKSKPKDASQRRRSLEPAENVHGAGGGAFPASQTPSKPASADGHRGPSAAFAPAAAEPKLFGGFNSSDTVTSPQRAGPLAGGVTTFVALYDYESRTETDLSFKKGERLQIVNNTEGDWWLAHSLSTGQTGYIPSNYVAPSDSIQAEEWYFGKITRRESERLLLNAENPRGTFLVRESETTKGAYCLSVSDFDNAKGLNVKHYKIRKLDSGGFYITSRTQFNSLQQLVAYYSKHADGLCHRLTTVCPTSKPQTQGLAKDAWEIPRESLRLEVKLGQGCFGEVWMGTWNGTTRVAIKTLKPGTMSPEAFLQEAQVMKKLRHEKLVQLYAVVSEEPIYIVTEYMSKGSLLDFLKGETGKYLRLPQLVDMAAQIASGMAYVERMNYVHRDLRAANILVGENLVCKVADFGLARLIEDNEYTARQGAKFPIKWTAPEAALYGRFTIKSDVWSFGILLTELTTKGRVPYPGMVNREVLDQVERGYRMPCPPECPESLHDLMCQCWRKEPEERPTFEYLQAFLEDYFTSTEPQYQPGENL
Protocol: as §1, §2, §3

GBM-U251MG = assay: GBM cell proliferation, U251MG (cell-based cancer efficacy assays); settings: Homo sapiens, U-251; Table 6B

SMILES	inhibition at 1 µM (TEC) [%]	inhibition at 1 µM (YES) [%]	inhibition at 1 µM (ITK) [%]	inhibition at 1 µM (FYN) [%]	inhibition at 1 µM (FER) [%]	inhibition at 1 µM (SRC) [%]	INHIBITORY EFFECT @ 1 uM: TEC (TEC; 1 uM)	Emax (GBM-U251MG) [%]	pIC50 (GBM-U251MG)
COc1ccc(F)cc1C(=O)NCc1ccc(-c2nn([C@@H](C)C(F)(F)F)c(N)c2C(N)=O)cc1 [LOXO-305, pirtobrutinib]	90 to 100	< 50	< 50	< 50	< 50	< 50			
C=CC(=O)N1CCC([C@@H]2CCNc3c(C(N)=O)c(-c4ccc(Oc5ccccc5)cc4)nn32)CC1 [Zanubrutinib, (7S)-2-(4-phenoxyphenyl)-7-(1-prop-2-enoylpiperidin-4-yl)-4,5,6,7-tetrahydropyrazolo[1,5-a]pyrimidine-3-carboxamide]			< 50		< 50		++++ (90%-100% Inhibition at 1 uM)		
O=C(c1ccc(Oc2ccccc2)cc1Cl)c1c[nH]c2ncnc(N[C@@H]3CC[C@@H](CO)OC3)c12 [ARQ-531, (2-chloro-4-phenoxyphenyl) (4-(((3R,6S)-6-(hydroxymethyl)tetrahydro-2H-pyran-3-yl)amino)-7H-pyrrolo[2,3-d]pyrimidin-5-yl) methanone]	90 to 100		50 to 69		70 to 89				
Cc1cccnc1[C@H]1CCC[C@@H](c2ncccc2C)N1CCN1CCN(C(=O)c2ccc(-c3cc4c(-c5cccc(NC(=O)c6ccccc6)c5C)ncnc4[nH]3)cc2)CC1 [Compound I-10, N-(3-(6-(4-(4-(2-((2R,6S)-2,6-bis(3-methylpyridin-2-yl)piperidin-1-yl)ethyl)piperazine-1-carbonyl)phenyl)-7H-pyrrolo[2,3-d]pyrimidin-4-yl)-2-methylphenyl)benzamide]	70 to 89	< 50	< 50	< 50	< 50	< 50		98	5.67
Cc1cc(-c2ccnc(Nc3cnn(CCN4[C@@H](c5ncccc5C)CCC[C@H]4c4ncccc4C)c3)n2)ccc1CNC(=O)N1CC(OC(C)C)C1 [Compound I-11]								82	6.03
